Measurements reported in PMC3813431 (Aquatic toxicology (Amsterdam, Netherlands), 2013).
Entries after “also recorded” stand apart in the source; their conditions may differ. Where two headings read alike, the source gives them in different places. Marks after values point to notes of the source that are not given here.

Columns and labels:
[1] = tested on: RyR1; assay: Mammalian RyR1 [3H]ryanodine binding; design: species or system rabbit; conditions: relative potency factor, EC2X relative to PCB 95; from literature EC2X values
[2] = biological target: ryanodine receptor, isoform 1 (RyR1) (Oncorhynchus mykiss, UniProt A0A8C7UX14); assay type: binding, rainbow trout (Oncorhynchus mykiss); conditions: for Comparison (Ratio): Fish RPF compared to Mammal RPF; for Log-Probit Slope / Bmax / Bmax (pmol/mg): Mean ± SEM; for Bmax / Bmax (pmol/mg): maximal level of [3H]Ry binding at saturation; for Fish RPF: relative potency factor, Q20 relative to PCB 95; for activity toward RyR1: rainbow trout preparation
ryanodine receptor, isoform 1 (RyR1), sequence (A0A8C7UX14 1-5031): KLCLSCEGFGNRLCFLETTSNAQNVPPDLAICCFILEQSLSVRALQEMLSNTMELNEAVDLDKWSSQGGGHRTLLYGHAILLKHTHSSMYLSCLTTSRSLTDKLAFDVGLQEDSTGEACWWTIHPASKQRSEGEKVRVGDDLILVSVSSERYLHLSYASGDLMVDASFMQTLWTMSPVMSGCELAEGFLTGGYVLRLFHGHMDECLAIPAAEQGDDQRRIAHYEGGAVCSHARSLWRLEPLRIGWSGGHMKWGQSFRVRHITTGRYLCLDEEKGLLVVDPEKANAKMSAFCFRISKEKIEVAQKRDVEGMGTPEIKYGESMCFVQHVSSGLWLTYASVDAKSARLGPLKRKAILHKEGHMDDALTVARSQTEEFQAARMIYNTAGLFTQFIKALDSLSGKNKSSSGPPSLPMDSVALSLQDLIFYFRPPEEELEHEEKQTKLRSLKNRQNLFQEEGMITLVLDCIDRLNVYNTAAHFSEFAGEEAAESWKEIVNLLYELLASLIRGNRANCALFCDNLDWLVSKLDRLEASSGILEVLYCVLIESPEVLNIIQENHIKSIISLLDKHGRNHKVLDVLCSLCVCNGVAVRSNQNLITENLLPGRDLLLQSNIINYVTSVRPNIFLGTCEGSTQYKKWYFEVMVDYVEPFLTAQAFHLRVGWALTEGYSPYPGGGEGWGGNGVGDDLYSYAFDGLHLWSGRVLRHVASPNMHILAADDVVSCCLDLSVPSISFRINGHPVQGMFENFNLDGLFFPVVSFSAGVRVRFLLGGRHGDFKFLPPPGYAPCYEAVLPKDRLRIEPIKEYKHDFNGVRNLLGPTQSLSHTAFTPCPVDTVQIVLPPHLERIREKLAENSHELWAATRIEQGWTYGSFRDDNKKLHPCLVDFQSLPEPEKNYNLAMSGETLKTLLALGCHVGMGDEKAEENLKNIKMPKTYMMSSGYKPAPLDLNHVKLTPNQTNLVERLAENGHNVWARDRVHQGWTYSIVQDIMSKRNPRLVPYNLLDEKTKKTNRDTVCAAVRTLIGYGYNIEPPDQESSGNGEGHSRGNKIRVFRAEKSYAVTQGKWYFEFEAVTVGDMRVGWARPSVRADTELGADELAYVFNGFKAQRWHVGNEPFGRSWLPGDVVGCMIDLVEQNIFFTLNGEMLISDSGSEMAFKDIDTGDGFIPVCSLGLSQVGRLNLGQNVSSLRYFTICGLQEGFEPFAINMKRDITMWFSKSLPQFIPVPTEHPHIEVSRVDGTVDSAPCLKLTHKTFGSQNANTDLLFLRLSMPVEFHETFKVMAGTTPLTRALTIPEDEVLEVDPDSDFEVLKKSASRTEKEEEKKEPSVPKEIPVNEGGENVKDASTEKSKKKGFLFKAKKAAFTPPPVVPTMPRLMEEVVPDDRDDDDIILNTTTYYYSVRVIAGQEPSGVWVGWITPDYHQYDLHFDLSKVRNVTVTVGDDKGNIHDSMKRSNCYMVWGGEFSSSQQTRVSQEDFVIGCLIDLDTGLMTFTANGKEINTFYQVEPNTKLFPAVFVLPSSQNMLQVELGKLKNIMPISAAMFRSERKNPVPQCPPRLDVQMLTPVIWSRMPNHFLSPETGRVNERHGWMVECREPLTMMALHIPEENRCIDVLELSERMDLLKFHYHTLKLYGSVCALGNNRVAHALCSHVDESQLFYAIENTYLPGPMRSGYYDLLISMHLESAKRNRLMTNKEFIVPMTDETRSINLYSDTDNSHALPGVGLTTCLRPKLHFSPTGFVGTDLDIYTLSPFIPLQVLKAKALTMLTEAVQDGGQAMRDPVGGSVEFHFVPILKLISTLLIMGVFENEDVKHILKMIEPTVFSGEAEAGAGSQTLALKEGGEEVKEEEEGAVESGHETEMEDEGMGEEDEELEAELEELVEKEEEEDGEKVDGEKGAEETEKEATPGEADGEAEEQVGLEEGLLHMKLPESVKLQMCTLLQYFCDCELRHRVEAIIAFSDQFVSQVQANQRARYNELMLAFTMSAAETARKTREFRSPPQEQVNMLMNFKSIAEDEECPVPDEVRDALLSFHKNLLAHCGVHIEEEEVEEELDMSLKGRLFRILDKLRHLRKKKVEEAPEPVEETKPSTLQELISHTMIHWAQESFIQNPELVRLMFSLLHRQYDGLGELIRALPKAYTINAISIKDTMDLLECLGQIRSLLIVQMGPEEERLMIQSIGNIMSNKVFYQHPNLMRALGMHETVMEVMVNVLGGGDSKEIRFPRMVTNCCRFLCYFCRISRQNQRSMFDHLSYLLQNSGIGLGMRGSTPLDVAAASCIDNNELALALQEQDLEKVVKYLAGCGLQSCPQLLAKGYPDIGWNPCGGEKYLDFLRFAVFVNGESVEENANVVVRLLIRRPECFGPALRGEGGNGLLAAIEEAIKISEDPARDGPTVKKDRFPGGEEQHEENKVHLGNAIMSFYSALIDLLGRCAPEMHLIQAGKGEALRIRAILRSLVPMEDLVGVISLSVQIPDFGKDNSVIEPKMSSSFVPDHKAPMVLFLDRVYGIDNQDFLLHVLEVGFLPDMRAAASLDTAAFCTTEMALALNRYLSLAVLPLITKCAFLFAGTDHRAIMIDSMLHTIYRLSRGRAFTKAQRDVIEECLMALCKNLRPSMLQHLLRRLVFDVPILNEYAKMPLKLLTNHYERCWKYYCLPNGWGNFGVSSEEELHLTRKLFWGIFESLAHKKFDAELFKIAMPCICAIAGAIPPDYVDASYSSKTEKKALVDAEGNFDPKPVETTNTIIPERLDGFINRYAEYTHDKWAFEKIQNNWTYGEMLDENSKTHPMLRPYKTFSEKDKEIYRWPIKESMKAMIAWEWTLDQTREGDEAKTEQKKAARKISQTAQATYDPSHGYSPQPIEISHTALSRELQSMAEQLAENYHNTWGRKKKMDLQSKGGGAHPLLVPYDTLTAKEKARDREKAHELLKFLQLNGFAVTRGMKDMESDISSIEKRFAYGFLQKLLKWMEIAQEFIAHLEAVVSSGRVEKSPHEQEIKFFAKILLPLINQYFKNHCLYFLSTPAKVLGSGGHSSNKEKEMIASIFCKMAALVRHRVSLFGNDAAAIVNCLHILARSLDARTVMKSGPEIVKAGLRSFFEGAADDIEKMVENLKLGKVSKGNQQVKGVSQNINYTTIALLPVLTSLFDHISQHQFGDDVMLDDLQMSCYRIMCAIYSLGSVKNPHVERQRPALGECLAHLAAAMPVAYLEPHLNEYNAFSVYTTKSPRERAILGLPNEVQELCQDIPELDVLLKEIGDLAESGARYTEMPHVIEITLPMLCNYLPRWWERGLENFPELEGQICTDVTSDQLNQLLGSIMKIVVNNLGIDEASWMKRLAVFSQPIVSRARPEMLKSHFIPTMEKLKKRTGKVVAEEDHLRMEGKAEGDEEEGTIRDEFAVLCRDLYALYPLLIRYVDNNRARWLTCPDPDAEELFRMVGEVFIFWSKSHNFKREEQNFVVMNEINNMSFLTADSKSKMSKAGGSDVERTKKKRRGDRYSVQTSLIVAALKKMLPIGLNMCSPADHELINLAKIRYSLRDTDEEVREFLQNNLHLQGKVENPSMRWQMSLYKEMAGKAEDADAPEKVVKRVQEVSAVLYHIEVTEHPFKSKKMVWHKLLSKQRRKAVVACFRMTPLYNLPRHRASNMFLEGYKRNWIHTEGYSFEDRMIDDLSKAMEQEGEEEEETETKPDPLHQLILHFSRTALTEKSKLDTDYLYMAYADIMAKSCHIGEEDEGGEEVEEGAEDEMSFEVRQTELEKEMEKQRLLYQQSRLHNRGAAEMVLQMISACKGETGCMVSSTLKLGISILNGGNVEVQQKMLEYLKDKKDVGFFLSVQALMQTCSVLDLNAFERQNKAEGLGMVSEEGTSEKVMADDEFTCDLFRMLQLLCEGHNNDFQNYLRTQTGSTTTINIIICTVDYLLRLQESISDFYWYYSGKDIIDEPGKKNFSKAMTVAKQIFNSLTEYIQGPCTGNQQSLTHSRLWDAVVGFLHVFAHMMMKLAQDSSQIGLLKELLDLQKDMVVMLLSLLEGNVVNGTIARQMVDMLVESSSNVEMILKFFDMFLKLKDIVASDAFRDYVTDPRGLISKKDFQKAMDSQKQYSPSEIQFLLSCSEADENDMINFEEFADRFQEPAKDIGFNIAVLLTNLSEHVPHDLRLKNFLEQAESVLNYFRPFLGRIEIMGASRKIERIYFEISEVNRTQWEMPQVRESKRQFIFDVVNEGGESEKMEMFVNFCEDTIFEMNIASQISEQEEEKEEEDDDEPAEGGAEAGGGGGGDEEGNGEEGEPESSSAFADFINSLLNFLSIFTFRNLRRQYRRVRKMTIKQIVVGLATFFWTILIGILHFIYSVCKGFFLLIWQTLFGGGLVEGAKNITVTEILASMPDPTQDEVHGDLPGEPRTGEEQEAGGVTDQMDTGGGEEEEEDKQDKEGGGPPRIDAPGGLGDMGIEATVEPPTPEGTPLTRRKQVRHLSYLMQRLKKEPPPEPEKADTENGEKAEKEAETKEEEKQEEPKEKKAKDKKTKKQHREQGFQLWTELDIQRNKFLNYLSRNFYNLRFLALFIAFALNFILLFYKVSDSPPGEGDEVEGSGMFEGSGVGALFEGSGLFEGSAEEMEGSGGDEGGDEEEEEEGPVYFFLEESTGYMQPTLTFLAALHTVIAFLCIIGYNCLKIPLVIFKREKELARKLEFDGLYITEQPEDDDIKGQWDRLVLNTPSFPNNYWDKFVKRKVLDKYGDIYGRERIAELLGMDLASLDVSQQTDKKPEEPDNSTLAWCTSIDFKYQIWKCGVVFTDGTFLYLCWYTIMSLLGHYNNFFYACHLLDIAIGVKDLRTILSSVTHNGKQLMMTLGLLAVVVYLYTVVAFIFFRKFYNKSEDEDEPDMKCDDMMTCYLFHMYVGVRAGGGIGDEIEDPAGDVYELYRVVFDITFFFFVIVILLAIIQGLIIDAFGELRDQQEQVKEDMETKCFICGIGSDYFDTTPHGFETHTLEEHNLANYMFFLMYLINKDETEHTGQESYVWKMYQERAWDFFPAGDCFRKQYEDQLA

[3] = tested on: RyR1; conditions: ref Pessah et al. 2006; cited from earlier work
[4] = tested on: RyR1; conditions: estimated from QSAR; ref Rayne and Forest 2010; cited from earlier work
[5] = linear regression of log-probit plot, (−) inactive
[6] = sigmoidal fit of enhanced [3H]Ry binding, PCB 0–20 μM, (−) inactive

Row | SMILES | Mammal RPF [1] | Comparison (Ratio) [2] | Log-Probit Slope [2, 5] | Bmax ([2]; (−) inactive) [pmol/mg] | Fish RPF ([2]; (−) inactive) | EC50 [2, 6] [nM] | Mammal EC2X [3] [µM] | Bmax (pmol/mg) ([2]; (−) inactive) | activity toward RyR1 [2] | receptor activity, % of baseline ([2]; at 20 μM (data not shown)) | Log-Probit Slope ([2]; parameter determined using activating concentrations only) | EC50 ([2]; single compound) [nM] | Mammal EC2X (μM) [4] | activity toward the RyR1 in mammals [3] | EC20 ([2]; read-out: Fish Normalized Q20 (μM)) [µM] | Emax ([2]; read-out: Maximum Response (% of Control)) [%]
1 | Clc1ccc(-c2cc(Cl)c(Cl)cc2Cl)c(Cl)c1 [PCB 99] | 0.08 | 0.35 | 2.30 ± 0.05 | 0.61 ± 0.03 | 0.03 | 3590 | 2.80 |  |  |  |  |  |  |  |  | 
2 | Clc1ccc(-c2c(Cl)ccc(Cl)c2Cl)cc1Cl [PCB 110] | 0.19 |  | 2.60 ± 0.01 | 0.48 ± 0.03 |  | 1080 | 1.13 |  |  |  |  |  |  |  |  | 
3 | Clc1ccc(Cl)c(-c2cc(Cl)c(Cl)cc2Cl)c1 [PCB 101] | 0.26 | 1.64 | 1.83 ± 0.04 | 0.64 ± 0.04 | 0.42 | 1980 | 0.86 |  |  |  |  |  |  |  |  | 
4 | Clc1ccc(-c2cc(Cl)c(Cl)c(Cl)c2Cl)c(Cl)c1Cl [PCB 170] | 0.30 |  |  |  |  | > 20000 | 0.73 | - | inactive |  |  |  |  |  |  | 
5 | Clc1ccc(-c2ccc(Cl)c(Cl)c2)c(Cl)c1 [PCB 66] | 0.09 | 0.44 | 2.93 ± 0.00 | 0.42 ± 0.02 | 0.04 | 1160 | 2.38 |  |  |  |  |  |  |  |  | 
6 | Clc1ccc(-c2c(Cl)ccc(Cl)c2Cl)c(Cl)c1Cl [PCB 132] | 0.24 | 0.10 |  | 0.46 ± 0.02 | 0.02 | 1320 | 0.91 |  |  | 88 % of baseline | 1.70 ± 0.04 ^a |  |  |  |  | 
7 | Clc1ccc(Cl)c(-c2c(Cl)ccc(Cl)c2Cl)c1Cl [PCB 136] | 0.96 | 0.63 | 3.16 ± 0.14 | 0.96 ± 0.04 | 0.60 | 1300 | 0.23 |  |  |  |  |  |  |  |  | 
8 | Brc1ccc(Oc2cc(Br)ccc2Br)c(Br)c1 [PBDE49] |  |  |  |  |  |  |  |  |  |  |  | 3480 |  |  |  | 
9 | Clc1cccc(-c2cccc(Cl)c2Cl)c1 [PCB 20] | 0.11 | 0.05 | 2.83 ± 0.10 | 0.34 ± 0.02 | 0.01 | 1800 |  |  |  |  |  |  | 2 ^c μM |  |  | 
10 | Clc1cc(Cl)c(-c2c(Cl)ccc(Cl)c2Cl)cc1Cl [PCB 149] | 0.67 | 1.45 | 3.40 ± 0.08 | 0.76 ± 0.04 | 0.96 | 810 | 0.33 |  |  |  |  |  |  |  |  | 
11 | Clc1ccc(Cl)c(-c2cccc(Cl)c2Cl)c1 [PCB 44] | 0.28 | 0.29 | 4.20 ± 0.10 | 0.50 ± 0.03 | 0.08 | 4500 |  |  |  |  |  |  | 0.8 ^c μM |  |  | 
12 | Clc1cc(Cl)c(-c2cc(Cl)c(Cl)cc2Cl)cc1Cl [PCB 153] | 0.18 | 0.41 | 2.25 ± 0.05 | 0.54 ± 0.02 | 0.07 | 5750 | 1.21 |  |  |  |  |  |  |  |  | 
13 | Clc1ccc(-c2ccc(Cl)cc2Cl)cc1 [PCB 28] | 0.04 |  |  |  |  | > 20000 |  | - | inactive |  |  |  | 5 ^c μM |  |  | 
14 | Clc1ccc(Cl)c(-c2c(Cl)ccc(Cl)c2Cl)c1 [PCB 95] | 1.00 | 1.00 | 2.15 ± 0.05 | 0.95 ± 0.04 | 1.00 | 1060 | 0.22 |  |  |  |  |  |  |  |  | 
15 | Clc1ccc(-c2cc(Cl)c(Cl)c(Cl)c2)cc1Cl [PCB 126] |  |  |  |  |  |  |  |  |  |  |  |  |  | inactive |  | 
16 | Clc1cc(-c2cc(Cl)c(Cl)c(Cl)c2Cl)c(Cl)c(Cl)c1Cl [PCB 194] | 0.44 | 0.09 | 8.94 ± 0.34 | 0.36 ± 0.02 | 0.04 | 1270 |  |  |  |  |  |  | 0.5 ^c μM |  |  | 
17 | Clc1ccc(-c2ccc(Cl)c(Cl)c2)cc1Cl [PCB 77] | 0.04 |  |  |  |  | > 20000 | 5.00 | - | negligible impact; also recorded: inactive |  |  |  |  |  |  | 
18 | Clc1cc(Cl)c(-c2c(Cl)cc(Cl)c(Cl)c2Cl)cc1Cl [PCB 183] | 0.40 | 0.16 | 1.58 ± 0.09 | 0.42 ± 0.03 | 0.06 | 1820 | 0.55 |  |  |  |  |  |  |  |  | 
19 | Clc1ccc(Cl)c(-c2c(Cl)c(Cl)cc(Cl)c2Cl)c1 [PCB 151] | 0.44 | 0.45 | 1.91 ± 0.04 | 0.77 ± 0.04 | 0.20 | 2760 | 0.50 |  |  |  |  |  |  |  |  | 
20 | Clc1cc(Cl)c(-c2cc(Cl)c(Cl)c(Cl)c2Cl)cc1Cl [PCB 180] | 0.23 | 0.17 | 1.84 ± 0.06 | 0.40 ± 0.03 |  |  | 0.96 |  |  |  |  |  |  |  | 11.2 | 132 ± 9.87
21 | Clc1cc(Cl)c(-c2c(Cl)c(Cl)cc(Cl)c2Cl)cc1Cl [PCB 187] | 0.38 | 0.16 | 3.05 ± 0.07 | 0.45 ± 0.02 | 0.06 | 1300 | 0.58 |  |  |  |  |  |  |  |  | 
22 | Clc1ccc(Cl)c(-c2cc(Cl)ccc2Cl)c1 [PCB 52] | 0.45 | 0.69 | 2.66 ± 0.09 | 0.77 ± 0.05 | 0.31 | 2940 | 0.49 |  |  |  |  |  |  |  |  | 
